Experiment [1] deals with T1, IRAK4 (Homo sapiens, UniProt Q9NWZ3).
T1 sequence (Q9NWZ3 1-460): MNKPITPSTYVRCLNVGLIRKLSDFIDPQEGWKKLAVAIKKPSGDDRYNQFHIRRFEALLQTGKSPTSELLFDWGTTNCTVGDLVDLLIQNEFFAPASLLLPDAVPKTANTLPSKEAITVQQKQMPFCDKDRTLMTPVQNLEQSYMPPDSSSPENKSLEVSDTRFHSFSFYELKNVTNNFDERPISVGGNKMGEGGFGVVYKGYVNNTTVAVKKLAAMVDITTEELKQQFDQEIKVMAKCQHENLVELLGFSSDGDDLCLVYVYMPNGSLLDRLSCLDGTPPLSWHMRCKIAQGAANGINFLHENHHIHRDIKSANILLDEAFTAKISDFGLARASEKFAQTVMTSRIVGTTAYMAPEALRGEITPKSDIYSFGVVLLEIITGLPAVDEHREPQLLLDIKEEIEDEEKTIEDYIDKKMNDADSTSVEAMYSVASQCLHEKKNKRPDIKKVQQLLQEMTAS
Nature of the experiment: WB detection of proteolysis (Western Blot, THP-1 cells). Format: cell-based. Put shortly:
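IRAK4 level in RIPA lysates read by Western blot with Odyssey imaging; values from bell-shaped non-linear fit with two four-parameter sections (Plateau1, Plateau2, Dip, LogEC50_1/2, nH1/2).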

The target in experiment [2] is T1, IRAK4. As to the kind of experiment: Hibit fluorescence detection of proteolysis (IRAK4-HiBiT in HEK293T cells). Format: cell-based. The note with it: for Dmax: HEK-293T; for DC50: IRAK4-HiBiT, HEK293T cells, 24 h. Details: host or cells: HEK293T (ATCC). A digest of the protocol: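 Degradation read-out: luminescence from lytic HiBiT detection (15 min, room temperature) after 24 h compound exposure (37 °C, 5% CO2) of HEK293T cells transiently expressing IRAK4 fused to a HiBiT tag. Data fitted to a bell-shaped four-parameter model giving two EC50 values.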
Background: With HiBiT, luminescence reflects the tagged protein that the partner subunit can reach.

[3] abbreviates: Western Blot, THP-1 cells, 24 h, read-out: DC50.
The mark [4] stands for this setting: Western Blot, THP-1 cells, 24 h, read-out: Dmax.

Molecules are shown by their SMILES. Where a name gives a salt, the structure may show the parent alone. Some results are limits rather than exact numbers.

For `Cn1c(=O)n(C2CCC(=O)NC2=O)c2cccc(N3CCC4(CCN(C[C@H]5CC[C@H](n6cc(-n7cc(-c8cnn9ccc(NCCC(C)(C)O)nc89)nn7)c(C(F)F)n6)CC5)CC4)CC3)c21` (stereo partly drawn) [Example 126], the results for the DC50 in experiment [1] (setting [3]) and in experiment [2] were < 10 nM and < 0.5 nM, respectively. Further, the Dmax in experiment [1] (setting [4]) was > 70%; in experiment [2], > 80%.

For the compound `Cn1c(=O)n(C2CCC(=O)NC2=O)c2cccc(N3CCN(C[C@H]4CC[C@H](n5cc(-n6cc(-c7cnn8ccc(N9CCNCC9)nc78)nn6)c(C(F)F)n5)CC4)CC3)c21` (stereo partly drawn) [Example 132, 3-(4-(1R,4R)-4-(3-difluoromethyl)-4-(4-(5-(piperazin-1-yl)pyrazolo[1,5-a]pyrimidin-3-yl)-1H-1,2,3-triazol-1-yl)-1H-pyrazol-1-yl)cyclohexyl)methyl)piperazin-1-yl)-3-methyl-2-oxo-2,3-dihydro-1H-benzoimidazol-1-yl)piperidine-2,6-dione dihydrochloride], the DC50 in experiment [1] (setting [3]) is < 10 nM; in experiment [2] it was 0.5 to 1 nM. Moreover, the Dmax is 60 to 70% in experiment [1] (setting [4]) and > 80% in experiment [2].

For the compound `Cn1c(=O)n(C2CCC(=O)NC2=O)c2cccc(N3CCC4(CCN(C[C@H]5CC[C@H](n6cc(-n7cc(-c8cnn9ccc(N%10CCC(O)CC%10)nc89)nn7)c(C(F)F)n6)CC5)CC4)CC3)c21` (stereo partly drawn) [Example 136], the values for the DC50 in experiment [1] (setting [3]) and in experiment [2] were < 10 nM and < 0.5 nM, respectively. In addition, the Dmax in experiment [1] (setting [4]) was > 70%; in experiment [2], > 80%.

For the compound `C[C@H]1CN(c2ccn3ncc(-c4cn(-c5cn([C@H]6CC[C@H](CN7CCC(N8CCN(c9cccc%10c9n(C)c(=O)n%10C9CCC(=O)NC9=O)CC8)CC7)CC6)nc5C(F)F)nn4)c3n2)CCO1` (stereo partly drawn) [Compound 208], the DC50 in experiment [1] (setting [3]) was < 10 nM; in experiment [2] (read-out: DC50), < 0.5 nM. Besides, the values for the Dmax in experiment [1] (setting [4]) and in experiment [2] were > 70% and > 80%, respectively.

On to `Cn1c(=O)n(C2CCC(=O)NC2=O)c2cccc(N3CCC4(CCN(C[C@H]5CC[C@H](n6cc(-n7cc(-c8cnn9ccc(N[C@H]%10CCCC[C@H]%10O)nc89)nn7)c(C(F)F)n6)CC5)C4)CC3)c21` (stereo partly drawn) [Example 147], for which the DC50 in experiment [1] (setting [3]) is 10 to 30 nM; in experiment [2], < 0.5 nM. Besides, the Dmax in experiment [1] (setting [4]) is > 70%; in experiment [2], > 80%.

Consider `Cn1c(=O)n(C2CCC(=O)NC2=O)c2cccc(N3CCN(C[C@H]4CC[C@H](n5cc(-n6cc(-c7cnn8ccc(N9CCC[C@H](O)C9)nc78)nn6)c(C(F)F)n5)CC4)CC3)c21` (stereo partly drawn) [Example 141], for which the DC50 in experiment [1] (setting [3]) was < 10 nM; in experiment [2], < 0.5 nM. In addition, the Dmax was > 70% in experiment [1] (setting [4]) and > 80% in experiment [2].

With `Cn1c(=O)n(C2CCC(=O)NC2=O)c2cccc(N[C@H]3CC[C@H](N(C)C[C@H]4CC[C@H](n5cc(-n6cc(-c7ccc8cc(C(N)=O)cnn78)nn6)c(C(F)F)n5)CC4)CC3)c21` (stereo partly drawn) [Example 61, 7-(1-(3-(difluoromethyl)-1-((1R,4r)-4-((((1r,4R)-4-((1-(2,6-dioxopiperidin-3-yl)-3-methyl-2-oxo-2,3-dihydro-1H-benzo[d]imidazol-4-yl)amino)cyclohexyl)(methyl)amino)methyl)cyclohexyl)-1H-pyrazol-4-yl)-1H - 1,2,3-triazol-4-yl)pyrrolo[1,2-b]pyridazine-3-carboxamide], the DC50 in experiment [1] (setting [3]) was < 10 nM; in experiment [2], < 0.5 nM. Besides, the Dmax in experiment [1] (setting [4]) is 60 to 70%; in experiment [2], > 80%.

For the compound `Cn1c(=O)n(C2CCC(=O)NC2=O)c2cccc(N[C@H]3CC[C@H](N(C)C[C@H]4CC[C@H](n5cc(-n6cc(-n7ccc8cc(C(N)=O)cnc87)nn6)c(C(F)F)n5)CC4)CC3)c21` (stereo partly drawn) [Example 102], the figures for the DC50 in experiment [1] (setting [3]) and in experiment [2] were 10 to 30 nM and < 0.5 nM, respectively. Further, the Dmax in experiment [1] (setting [4]) is < 60%; in experiment [2], > 80%.

With `Cn1c(=O)n(C2CCC(=O)NC2=O)c2cccc(N3CCC4(CCN(C[C@H]5CC[C@H](n6cc(-n7cc(-n8ccc9cc(C(N)=O)cnc98)nn7)c(C(F)F)n6)CC5)CC4)C3)c21` (stereo partly drawn) [Example 103, 1-(1-(3-(difluoromethyl)-1-((1r,4r)-4-(2-(1-(2,6-dioxopiperidin-3-yl)-3-methyl-2-oxo-2,3-dihydro-1H-benzo[d]imidazol-4-yl)-2,8-diazaspiro[4.5]dec-8-yl)methyl)cyclohexyl)-1H-pyrazol-4-yl)-1H-1,2,3-triazol-4-yl], the DC50 in experiment [1] (setting [3]) was < 10 nM; in experiment [2] it was < 0.5 nM. Further, the figures for the Dmax in experiment [1] (setting [4]) and in experiment [2] were < 60% and > 80%, respectively.

In the case of `C[C@H]1CN(c2cccc3c2n(C)c(=O)n3C2CCC(=O)NC2=O)CCN1C[C@H]1CC[C@H](n2cc(-n3cc(-c4cnn5ccc(N6CCC[C@H](N)C6)nc45)nn3)c(C(F)F)n2)CC1` (stereo partly drawn) [Example 285], the values for the DC50 in experiment [1] (setting [3]) and in experiment [2] were > 30 nM and < 0.5 nM, respectively. In addition, the Dmax in experiment [1] (setting [4]) was 60 to 70%; in experiment [2], > 80%.

On to `Cn1c(=O)n(C2CCC(=O)NC2=O)c2cccc(N3CCC(N4CCN(C[C@H]5CC[C@H](n6cc(-n7cc(-c8cnn9ccc(N%10CCC(C)(O)CC%10)nc89)nn7)c(C(F)F)n6)CC5)CC4)CC3)c21` (stereo partly drawn) [Example 124], for which the DC50 is < 10 nM in experiment [1] (setting [3]) and < 0.5 nM in experiment [2]. The values for the Dmax in experiment [1] (setting [4]) and in experiment [2] were 60 to 70% and > 80%, respectively.

Turning to `Cn1c(=O)n(C2CCC(=O)NC2=O)c2cccc(N3CCC4(CCN(C[C@H]5CC[C@H](n6cc(-n7cc(-c8cnn9ccc(N%10CCOCC%10)nc89)nn7)c(C(F)F)n6)CC5)CC4)CC3)c21` (stereo partly drawn) [Example 36], the DC50 in experiment [1] (setting [3]) is < 10 nM; in experiment [2] it was < 0.5 nM. Moreover, the Dmax is 60 to 70% in experiment [1] (setting [4]) and > 80% in experiment [2].

As for `Cn1c(=O)n(C2CCC(=O)NC2=O)c2cccc(N3CCC(N4CCN(C[C@H]5CC[C@H](n6cc(-n7cc(-c8cnn9ccc(N%10CCNCC%10)nc89)nn7)c(C(F)F)n6)CC5)CC4)CC3)c21` (stereo partly drawn) [Example 127, 3-(4-(4-(4-(((1r,4r)-4-(3-(difluoromethyl)-4-(4-(5-(piperazin-1-yl))pyrazolo[1,5-a]pyrimidin-3-yl)-1H-1,2,3-triazol-1-yl)-1H-pyrazol-1-yl)cyclohexyl)methyl)piperazin-1-yl)piperidin-1-yl)-3-methyl-2-oxo-2,3-dihydro-1H-benzo[d]imidazol-1-yl)piperidine-2,6-dione dihydrochloride], the DC50 was 10 to 30 nM in experiment [1] (setting [3]) and < 0.5 nM in experiment [2]. For the same compound, the Dmax in experiment [1] (setting [4]) is > 70%; in experiment [2] it was > 80%.

Consider `Cn1c(=O)n(C2CCC(=O)NC2=O)c2cccc(N3CCC(N4CCN(C[C@H]5CC[C@H](n6cc(-n7cc(-c8cnn9ccc(N%10CCOCC%10)nc89)nn7)c(C(F)F)n6)CC5)CC4)CC3)c21` (stereo partly drawn) [Example 34], for which the results for the DC50 in experiment [1] (setting [3]) and in experiment [2] were < 10 nM and < 0.5 nM, respectively. Moreover, the Dmax in experiment [1] (setting [4]) was 60 to 70%; in experiment [2], > 80%.

As for `Cn1c(=O)n(C2CCC(=O)NC2=O)c2cccc(N3CCC4(CCN(C[C@H]5CC[C@H](n6cc(-n7cc(-n8ccc9cc(C(N)=O)cnc98)nn7)c(C(F)F)n6)CC5)C4)CC3)c21` (stereo partly drawn) [Example 97, 1-(1-(3-(difluoromethyl)-1-((1r,4r)-4-((8-(1-(2,6-dioxopiperidin-3-yl)-3-methyl-2-oxo-3,3-dihydro-1H-benzo[d]imidazol-4-yl)-2,8-diazaspiro[4.5]dec-2-yl)methyl)cyclohexyl)-1H-pyrazol-4-yl)-1H-1-1,2,3-triazolyl)-1H-pyrrolo[2,3-b]pyridine-5-carboxamide], the values for the Dmax in experiment [1] (THP-1) and in experiment [2] were > 70% and > 80%, respectively. Moreover, the DC50 in experiment [1] (Western Blot, THP-1 cells, 24 h) was < 10 nM; in experiment [2], < 0.5 nM.

`Cn1c(=O)n(C2CCC(=O)NC2=O)c2cccc(N3CCN(C[C@H]4CC[C@H](n5cc(-n6cc(-c7cnn8ccc(N9CCC[C@H](N)C9)nc78)nn6)c(C(F)F)n5)CC4)CC3)c21` (stereo partly drawn) [Example 115]: the DC50 in experiment [1] (setting [3]) was < 10 nM; in experiment [2] it was < 0.5 nM. Also, the Dmax in experiment [1] (setting [4]) is > 70%; in experiment [2] it was > 80%.

Turning to `Cn1c(=O)n(C2CCC(=O)NC2=O)c2cccc(N3CCN(C4CCN(C[C@H]5CC[C@H](n6cc(-n7cc(-c8cnn9ccc(N%10CCC[C@@H](O)C%10)nc89)nn7)c(C(F)F)n6)CC5)CC4)CC3)c21` (stereo partly drawn) [Example 245], the values for the DC50 in experiment [1] (setting [3]) and in experiment [2] were < 10 nM and < 0.5 nM, respectively. Besides, the Dmax in experiment [1] (setting [4]) was > 70%; in experiment [2] it was > 80%.

Consider `Cn1c(=O)n(C2CCC(=O)NC2=O)c2cccc(N3CCC4(CC3)CN(C[C@H]3CC[C@H](n5cc(-n6cc(-c7ccc8cc(C(N)=O)cnn78)nn6)c(C(F)F)n5)CC3)C4)c21` (stereo partly drawn) [Example 64], for which the DC50 is > 30 nM in experiment [1] (setting [3]) and < 0.5 nM in experiment [2]. Besides, the Dmax in experiment [1] (setting [4]) was 60 to 70%; in experiment [2], > 80%.

The values above are taken from patent EP4759807A1, “PROTEOLYSIS TARGETING CHIMERA COMPOUND FOR DEGRADING IRAK4 AND USE THEREOF” (Shenzhen Zhongge Biological Technology Co., Ltd., priority 2023, dated 2025).
